Measured values taken from patent EP4282435A1, “FORMULATIONS OF ACTIVE PHARMACEUTICAL INGREDIENTS AND EXCIPIENTS IN ICELLS VIA HYDROPHOBIC ION PAIRING” (Danmarks Tekniske Universitet, priority 2022, dated 2023).
Like-named read-outs stand apart in the source and are kept apart here.

What was measured:
S. aureus strain S54F9 = assay: Microbiological assay, Disc Diffusion Assay; format: cell-based, Staphylococcus aureus; details: 24 hours at 37 °C
Method: Then, 3 wells were carved out with the use of the broad side of an autoclaved 1 ml pipette tip.
This setup was repeated for three experimental replicates. Each plate was incubated for 24 hours at 37 °C, before inspection.
Then, 3 wells were carved out with the use of the broad side of an autoclaved 1 ml pipette tip. In one well, 0.5 mg linoleic acid was injected as 90 µl 0.22 µm-sterile-filtered dimethyl sulfoxide. In a second well, 90 µl autoclaved phosphate-buffered saline with 0.5 mg vancomycin hydrochloride was injected. […] The plate was incubated for 24 hours at 37 °C, before inspection.

[1] = Text: The chloroform phase was isolated, transferred to a new vial and subsequently chloroform was dried under a gentle flow of nitrogen.
[2] = HIP complexation efficacy of clindamycin (UHPLC of organic phase); format: physicochemical; details: percentage of clindamycin complexed with the named co-ion, 1:1 charge ratio
Method: HIP complexation via Bligh-Dyer method: […] Moreover, chloroform and methanol were mixed before the addition of the aqueous clindamycin solution. […] The dried complex was re-suspended in methanol and analyzed by UHPLC to determine the amount of clindamycin. HIP complexation via modified Bligh-Dyer method: […] Next, 4 mL of chloroform were added and the resulting monophase was shaken at 400 rpm at room temperature for 30 min. 4 mL of chloroform followed by 4 mL of water were added to form a biphasic system. Isolation and analysis of the dried complex was done as described beforehand for the Bligh-Dyer method. UHPLC method: Samples were analyzed on a Shimadzu Nexera-X with a PDA detector. Samples were injected (5 μL) onto a Waters Terra XBridge BEH C8 column (2.5 μm, 4.6x75mm, temperature 25 °C) at a flow rate of 1 mL/min.

[3] = HIP complexation of gentamicin (HPLC-ELSD of supernatant or aqueous phase); format: physicochemical; details: Bligh-Dyer method, 1:1 charge ratio; gentamicin not detected in aqueous phase
Method: HIP complexation via organic-solvent free method: […] A white precipitate was obtained, which corresponded to the HIP complex. The supernatant was removed and its gentamicin content was evaluated by HPLC. […] A sample of the aqueous phase was taken to evaluate its gentamicin content by HPLC. HPLC method: Samples were analyzed on a Shimadzu Nexera-i with an evaporative light scattering detector (ELSD). Samples were injected (5 µL) onto a Waters Terra XBridge BEH C8 column (5 µm, 4.6x150mm, temperature 25 °C) at a flow rate of 1 mL/min.

[4] = remark: listed apart in the source
Method: After removing the supernatant, the complex was dissolved in methanol, transferred to a new glass vial and the solvent was dried under a gentle nitrogen flow. […] The chloroform phase was isolated, transferred to a new vial and subsequently chloroform was dried under a gentle flow of nitrogen.

[5] = HIP complexation of SIINFEKL with SDS (HPLC of supernatant); format: physicochemical
Method: (1.5 mg/mL) was dissolved in 0.01 M HCI. […] The […] and co-ion solution were mixed in equal volumes, followed by shaking and centrifugation steps as described in method 1 of example 2. The supernatant was removed the content of […] was evaluated by HPLC.
HPLC method: Samples were analyzed on a Shimadzu Nexera-X with PDA. Samples were injected (40 µL) onto a Waters Terra XBridge BEH C8 column (2.5 µm, 4.6x150mm, temperature 25 °C) at a flow rate of 1 mL/min. The solvent system consisted of mobile phase A (5% MeCN, 0.1% TFA in water) and mobile phase B (0.1% TFA in MeCN). The gradient was 0% B for 1.5 min, 0 to 100% B in 7 min, 100% B for 1.5 min, 100% B to 0% B in 0.5 min, 0% B for 1.5 min. […] was quantified by UV at 220 nm.

[6] = Stability of ICG HIP complexes in ICell (HPLC); format: physicochemical; details: ICG complexed with the named co-ion in SuBen:GTO:EtOH (60:25:15) ICell, 7 weeks in the dark at room temperature, percentage AUC of ICG at 280 nm
Method: (§1) For each co-ion, the chloroform phase was isolated and transferred to new glass vials. Chloroform was dried under a gentle flow of nitrogen.
(§2) 1 g of ICell was added to each vial containing the previously isolated ICG HIP complexes. In addition, 1 g of ICell was added to a vial containing 2.5 mg of native ICG.
Stability study: After preparation, ICells were stored at room temperature and protected from light. After 7 weeks, approximately 25 µL of each formulation were taken and dissolved in 500 µL of acetonitrile. The samples were then analyzed by HPLC. HPLC analysis: Samples were analyzed on a Shimadzu Nexera-X HPLC. Samples were injected (5 µL) onto a Waters Terra XBridge BEH C18 column (2.5 µm, 4.6x75mm, temperature 25 °C) at a flow rate of 1 mL/min. The solvent system consisted of mobile phase A (5% MeCN, 0.1% TFA in water) and mobile phase B (0.1% TFA in MeCN). The gradient was 0% B for 1 min, 0 to 100% B in 5 min, 100% B for 4 min, 100% B to 0% B in 0.5 min, 0% B for 1 min. UV detection at 280 nm was used to measure the AUC of ICG and its related degradation products.

[7] = Solubility of ICG HIP complexes in ICell (visual)
Method: as §1, §2

[8] = HIP complexation of ICG by method 3 (Bligh-Dyer), judged by colour of the phases; format: physicochemical; details: co-ion:ICG 1:1 molar ratio
Method: HIP method 3 (Bligh-Dyer method): ICG (5 mg/mL) was dissolved in a 0.01 M HCI solution. Benethamine, dodecylamine, CTAB and tetraethyl ammonium bromide were used as co-ions. Each co-ion was dissolved in methanol in a 1:1 molar ratio to ICG. In an 8-mL glass vial, 1 mL of chloroform, 2 mL of co-ion solution (methanol), and 1 mL of ICG solution (water) were added in that order (methanol without co-ions was used as a control). The vials was gently shaken (i.e., slowly turned over 2-3 times) and incubated for 45 min at room temperature in the dark. Then 1 mL of water was added followed by 1 mL of chloroform. The vial was gently shaken again and incubated for 45 min at room temperature in the dark. The resulting HIP complex is present in the lower organic phase.
DB36 and ICG are negatively charged molecules, which are very soluble in water, but not in organic solvents such as chloroform. All the used co-ions have a positive charge and they could form hydrophobic ion pairing (HIP) complexes with either DB36 or ICG. When solubilized, DB36 and ICG form dark blue or green solutions, respectively. Thus, successful HIP complexation was assessed by either observing precipitates (for method 1) or a change in coloration in the chloroform phase (for methods 2 and 3). […]

[9] = In vitro release of clindamycin-HIP complexes from ICell into PBS; format: in vitro ADME; details: clindamycin or its HIP complex with the named co-ion, SuBen:GTH:EtOH (60:20:20) ICell, 20 mg/g, PBS 37°C, after 8 days, mean (n=2)
Method: ICell formulation: […] […] In vitro release: 50 μL of each ICell were individually injected in 8-mL glass vials containing 2 mL PBS, for which the exact amount of injected ICell was weighed. The vials were incubated at 37 °C and at each sampling point 1 mL of PBS was taken. 1 mL of fresh buffer was added immediately to the vial to replace the taken sample. The samples were then analyzed by HPLC and the concentration of drug in the release media was calculated. UHPLC method: HPLC analyses were done using a Shimadzu Nexera-X UHPLC instrument with a PDA detector. The samples were injected (40 μL) onto a Waters Terra BEH C8 column (2.5μm, 4.6x75mm, temperature 25°C) at a flow rate of 0.8 mL/min.

[10] = Effect of co-ions on surface tension of ICell (visual appearance of injected depots); format: physicochemical; details: co-ion alone (2 mM or 10 mM, no ICG) in SuBen:GTH:DMSO or SuBen:GTO:EtOH ICell, in PBS, 7 days at 37°C
Method: ICell formulation: A SuBen:GTH:DMSO (60:20:20), SuBen:GTH:DMSO (60:20:15) and a SuBen:GTO:EtOH (60:25:10) ICell were prepared as described in example 4. Effect on surface tension without ICG: TOAB was dissolved in DMSO and EtOH to produce solutions with a concentration of […]. CTAB was dissolved in EtOH to produce solutions with a concentration of […]. 0.03 g of each co-ion solution were individually added to 0.57 g of either a SuBen:GTH:DMSO (60:20:15) or a SuBen:GTO:EtOH (60:25:10) ICell. Thus, the final co-ion concentration in each ICell was 2mM or 10 mM. 50 µL of the previously prepared ICells were injected in glass vials containing 2 mL PBS. The vials were incubated at 37°C during 7 days and the visual appearance of the injected depots was evaluated.
(§3) Chloroform was dried under a gentle flow of nitrogen.
Effect on surface tension with ICG: SuBen:GTH:DMSO (60:20:20) ICell was proportionally added to the previously isolated ICG HIP complexes to obtain formulations with a final ICG concentration of either 0.1 or 2.5 mg/g as described in Table 4. 50 µL of these ICells were injected in glass vials containing 2 mL PBS. The vials were incubated at 37°C during 3 days and the visual appearance of the injected depots was evaluated.

[11] = Solubility and stability of ICG HIP complex in different solvents (HPLC); format: physicochemical; details: native non-complexed ICG in water, 5 days at 25°C in the dark, HPLC 280 nm
Method: as §3
HPLC analysis: Samples were analyzed on a Shimadzu Nexera-X HPLC. […] The solvent system consisted of mobile phase A (5% MeCN, 0.1% TFA in water) and mobile phase B (0.1% TFA in MeCN). The gradient was 0% B for 1 min, 0 to 100% B in 5 min, 100% B for 4 min, 100% B to 0% B in 0.5 min, 0% B for 1 min. UV detection at 280 nm was used to measure the AUC of ICG and its related degradation products.

[12] = ICG or its HIP complex with the named co-ion in SuBen:GTO:EtOH (60:25:15) ICell, about 2.5 mg ICG per 1 g ICell, visual

SMILES: CCCCC/C=C\C/C=C\CCCCCCCC(=O)O [Linoleic acid]
- antimicrobial activity (clearance of S. aureus) (S. aureus strain S54F9; Example 24, wells: 0.5 mg linoleic acid in DMSO, 0.5 mg vancomycin hydrochloride, 45 µl HIP complex + 45 µl PBS): has an antimicrobial effect, but to an extent lesser than vancomycin
- solubility in ICell [1]: easily solubilized
- Complexation efficacy Bligh-Dyer method [2]: 64%
- Complexation efficacy Modified Bligh-Dyer method [2]: 80%

SMILES: CC(=O)NC[C@H]1CN(c2ccc(N3CCOCC3)c(F)c2)C(=O)O1 [linezolid, Linezolid]
- antimicrobial activity (clearing zone) after release from ICell (S. aureus strain S54F9; Example 23, 50 µl ICell per well (gentamicin-docusate 20 mg/g, Linezolid 15 mg/g in SuBen:GTO:EtOH (60:25:15))): clearing zone

SMILES: CCCCC(CC)COC(=O)CC(C(=O)OCC(CC)CCCC)S(=O)(=O)O (stereo not shown) [Sodium docusate]
- gentamicin complexed [3]: 100%
- solubility in ICell [4]: easily solubilized

SMILES: CC[C@H](C)[C@H](NC(=O)[C@@H](NC(=O)[C@@H](N)CO)[C@@H](C)CC)C(=O)N[C@@H](CC(N)=O)C(=O)N[C@@H](Cc1ccccc1)C(=O)N[C@@H](CCC(=O)O)C(=O)N[C@@H](CCCCN)C(=O)N[C@@H](CC(C)C)C(=O)O [HIP complex of SIINFEKL with SDS]
- solubility in methanol [5]: soluble

SMILES: CCCCCCCCCCCCN [Dodecylamine]
- ICG % AUC [6]: 95.3%
- solubility in ICell [7]: easily solubilized
- ICG complexed [8]: ~100%

SMILES: CCCCCCCC/C=C\CCCCCCCC(=O)[O-].[Na+] [Sodium oleate]
- release of clindamycin from the ICell [9]: 96%
- Complexation efficacy Bligh-Dyer method [2]: 72%
- Complexation efficacy Modified Bligh-Dyer method [2]: 72%

SMILES: CCCCCCCCCCCCCCCC[N+](C)(C)C [CTAB]
- ICG % AUC [6]: 97.6%
- solubility in ICell [7, 12]: easily solubilized
- visual appearance of injected ICell depots (surface tension) [10]: had flatten
- ICG complexed [8]: ~100%

SMILES: CCCCCCC/C=C\C(=O)O [C2DA]
- solubility in ICell ([1]; clindamycin or its HIP complex with the named co-ion, SuBen:GTH:EtOH (60:20:20) ICell, clindamycin 20 mg/g, visual): easily solubilized
- Complexation efficacy Bligh-Dyer method [2]: 80%
- Complexation efficacy Modified Bligh-Dyer method [2]: 72%

SMILES: CC[N+](CC)(CC)CC.[Br-] [Tetraethyl ammonium bromide]
- ICG % AUC [6]: 96.3%

SMILES: CC1(C)C(/C=C/C=C/C=C/C=C2\N(CCCCS(=O)(=O)O)c3ccc4ccccc4c3C2(C)C)=[N+](CCCCS(=O)(=O)[O-])c2ccc3ccccc3c21 [ICG, indocyanine green, reference compound]
- solubility in ICell [7, 12]: not soluble
- stability [11]: no longer visible in the chromatogram

SMILES: CC[C@H](C)[C@H](NC(=O)[C@@H](NC(=O)[C@@H](N)CO)[C@@H](C)CC)C(=O)N[C@@H](CC(N)=O)C(=O)N[C@@H](Cc1ccccc1)C(=O)N[C@@H](CCC(=O)O)C(=O)N[C@@H](CCCCN)C(=O)N[C@@H](CC(C)C)C(=O)O [SIINFEKL] [reference compound]
- solubility in methanol [5]: insoluble
